In patent US12570659B2, “Bicyclic heteroaryl compounds useful as IRAK4 inhibitors” (BRISTOL-MYERS SQUIBB COMPANY, priority 2019, dated 2026):

Tests used:
IRAK4 = IRAK4 (Homo sapiens (Human), UniProt Q9NWZ3); experiment: IRAK4 Inhibition Assay; format: biochemical; settings: ATP 500 μM; IRAK4 0.6 nM; 60 min room temperature
Summary of the method: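 Reaction started by combining IRAK4 with substrates and compound, run 60 min at room temperature and stopped with 35 mM EDTA. Fluorescent substrate and phosphorylated product were separated electrophoretically on a Caliper LabChip; inhibition normalized to no-enzyme (100%) and vehicle-only (0%) controls.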

JAK3 kinase = JAK3 kinase (Homo sapiens (Human), UniProt P52333); experiment: JAK3 Homogeneous Time Resolved Fluorescence (HTRF) Assay; format: binding; settings: for IC50: competition binding with fluorescein-labeled ATP competitive probe; for Ratio of JAK3 IC50 to IRAK4 IC50: selectivity for IRAK4 over JAK3
Summary of the method: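 TR-FRET competition binding: 1 nM His- or GST-tagged JAK3 with 0.2 nM Tb-labeled anti-tag antibody, fluorescein ATP-competitive probe at its Kd, and compound for one hour. FRET read at 495/520 nm, normalized to no-compound signal. IC50 from 11 concentrations, 4-parameter logistic fit.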

Chain of JAK3 kinase (P52333 whole entry): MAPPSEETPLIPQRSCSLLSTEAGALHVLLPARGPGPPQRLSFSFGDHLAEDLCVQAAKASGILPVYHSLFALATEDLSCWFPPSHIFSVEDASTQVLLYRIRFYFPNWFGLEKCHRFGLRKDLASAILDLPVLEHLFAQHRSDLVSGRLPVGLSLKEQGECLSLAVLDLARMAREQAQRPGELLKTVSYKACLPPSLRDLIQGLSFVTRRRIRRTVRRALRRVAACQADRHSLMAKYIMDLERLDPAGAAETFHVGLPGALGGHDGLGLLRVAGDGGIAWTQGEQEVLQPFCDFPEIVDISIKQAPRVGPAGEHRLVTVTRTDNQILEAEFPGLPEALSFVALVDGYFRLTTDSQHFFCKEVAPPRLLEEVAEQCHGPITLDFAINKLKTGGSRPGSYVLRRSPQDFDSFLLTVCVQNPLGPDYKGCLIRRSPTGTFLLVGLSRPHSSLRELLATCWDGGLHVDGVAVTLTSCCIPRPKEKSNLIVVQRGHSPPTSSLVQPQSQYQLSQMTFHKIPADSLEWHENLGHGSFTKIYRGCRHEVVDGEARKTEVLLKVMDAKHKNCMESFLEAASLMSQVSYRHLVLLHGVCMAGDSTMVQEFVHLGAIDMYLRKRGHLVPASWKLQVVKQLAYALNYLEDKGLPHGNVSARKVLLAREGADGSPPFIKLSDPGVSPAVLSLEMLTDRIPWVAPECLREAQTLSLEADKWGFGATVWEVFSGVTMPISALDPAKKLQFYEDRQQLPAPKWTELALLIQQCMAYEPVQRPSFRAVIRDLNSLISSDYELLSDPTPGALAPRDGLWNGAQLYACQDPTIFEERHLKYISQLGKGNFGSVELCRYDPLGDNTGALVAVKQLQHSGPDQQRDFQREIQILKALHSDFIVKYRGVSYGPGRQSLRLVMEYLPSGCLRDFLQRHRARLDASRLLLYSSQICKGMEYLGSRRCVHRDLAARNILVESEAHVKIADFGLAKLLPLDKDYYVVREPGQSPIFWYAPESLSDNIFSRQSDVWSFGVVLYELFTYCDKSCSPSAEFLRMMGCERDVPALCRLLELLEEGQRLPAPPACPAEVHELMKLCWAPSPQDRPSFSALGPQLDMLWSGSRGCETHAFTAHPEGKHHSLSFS
Chain of IRAK4 (Q9NWZ3 whole entry, species assumed): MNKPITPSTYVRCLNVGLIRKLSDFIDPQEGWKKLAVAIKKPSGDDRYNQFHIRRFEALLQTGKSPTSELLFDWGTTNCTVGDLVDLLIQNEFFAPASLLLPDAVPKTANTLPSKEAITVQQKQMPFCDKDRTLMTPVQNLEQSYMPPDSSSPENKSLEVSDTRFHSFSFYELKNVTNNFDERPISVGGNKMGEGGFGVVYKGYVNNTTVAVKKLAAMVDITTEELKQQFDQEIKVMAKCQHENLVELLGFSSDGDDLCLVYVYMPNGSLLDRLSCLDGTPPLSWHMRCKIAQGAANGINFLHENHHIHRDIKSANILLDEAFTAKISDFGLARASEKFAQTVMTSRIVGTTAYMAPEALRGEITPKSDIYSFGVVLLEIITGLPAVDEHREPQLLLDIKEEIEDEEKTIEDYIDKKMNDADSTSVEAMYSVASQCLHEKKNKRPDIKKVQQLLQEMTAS

| SMILES | IC50 (IRAK4) | IC50 (JAK3 kinase) | Ratio of JAK3 IC50 to IRAK4 IC50 (JAK3 kinase) |
| --- | --- | --- | --- |
| CC(C)Nc1c(C(=O)NC[C@@H](F)C(C)(C)O)cnn2cc(-c3ccc(F)cc3)nc12 [Example 104, (R)—N-(2-fluoro-3-hydroxy-3-methylbutyl)-2-(4-fluorophenyl)-8-(isopropylamino)imidazo[1,2-b]pyridazine-7-carboxamide] | 39 nM | > 10000 nM | >256 |
| CC(C)Nc1c(C(=O)NCCC(C)(C)O)cnn2cc(-c3ccncc3)nc12 [Example 105, N-(3-hydroxy-3-methylbutyl)-8-(isopropylamino)-2-(pyridin-4-yl)imidazo[1,2-b]pyridazine-7-carboxamide] | 62 nM | > 50000 nM | >806 |
| CC(C)Nc1c(C(=O)NCCN2CCOCC2)cnn2cc(-c3ccncc3F)nc12 [Example 106, 2-(3-fluoropyridin-4-yl)-8-(isopropylamino)-N-(2-morpholinoethyl)imidazo[1,2-b]pyridazine-7-carboxamide] | 22 nM | > 50000 nM | >2273 |
| CC(C)Nc1c(C(=O)NCCC(C)(C)O)cnn2cc(-c3cn[nH]c3)nc12 [Example 107, N-(3-hydroxy-3-methylbutyl)-8-(isopropylamino)-2-(1H-pyrazol-4-yl)imidazo[1,2-b]pyridazine-7-carboxamide] | 90 nM | > 50000 nM | >556 |
| CC(C)Nc1c(C(=O)NCCN2CCOCC2)cnn2cc(-c3cn[nH]c3)nc12 [Example 110, 8-(isopropylamino)-N-(2-morpholinoethyl)-2-(1H-pyrazol-4-yl) imidazo[1,2-b]pyridazine-7-carboxamide] | 150 nM | > 50000 nM | >333 |
| CC(=O)N1CCC(NC(=O)c2cnn3cc(-c4ccncc4F)nc3c2NC(C)C)CC1 [Example 112, N-(1-acetylpiperidin-4-yl)-2-(3-fluoropyridin-4-yl)-8-(isopropylamino)imidazo[1,2-b]pyridazine-7-carboxamide] | 11 nM | > 10000 nM | >909 |
| Cc1cc(F)ncc1-c1cn2ncc(C(=O)N[C@H]3C[C@H](C(C)(C)O)C3)c(NC(C)C)c2n1 [Example 113, 2-(6-fluoro-4-methylpyridin-3-yl)-N-((1r,3r)-3-(2-hydroxypropan-2-yl)cyclobutyl)-8-(isopropylamino) imidazo[1,2-b]pyridazine-7-carboxamide] | 96 nM | > 50000 nM | >521 |
| CC(C)Nc1c(C(=O)N[C@H]2C[C@H](C(C)(C)O)C2)cnn2cc(-c3ccc(F)nc3)nc12 [Example 114, 2-(6-fluoropyridin-3-yl)-N-((1r,3r)-3-(2-hydroxypropan-2-yl)cyclobutyl)-8-(isopropylamino)imidazo[1,2-b]pyridazine-7-carboxamide] | 840 nM | > 50000 nM | >60 |
| CC(C)Nc1c(C(=O)NC[C@@H](F)C(C)(C)O)cnc2cc(-c3cccnc3)nn12 [Example 115, (R)—N-(2-fluoro-3-hydroxy-3-methylbutyl)-7-(isopropylamino)-2-(pyridin-3-yl) pyrazolo[1,5-a]pyrimidine-6-carboxamide] | 25 nM | > 10000 nM | >400 |
| CC(C)Nc1c(C(=O)NC[C@@H](F)C(C)(C)O)cnc2cc(-c3ccncc3)nn12 [Example 122, (R)—N-(2-fluoro-3-hydroxy-3-methylbutyl)-7-(isopropylamino)-2-(pyridin-4-yl)pyrazolo[1,5-a] pyrimidine-6-carboxamide] | 16 nM | > 10000 nM | >625 |
| CC(C)Nc1c(C(=O)NC[C@@H](F)C(C)(C)O)cnc2cc(-c3ccc(=O)[nH]c3)nn12 [Example 123, (R)—N-(2-fluoro-3-hydroxy-3-methylbutyl)-7-(isopropylamino)-2-(6-oxo-1,6-dihydropyridin-3-yl)pyrazolo[1,5-a]pyrimidine-6-carboxamide] | 4.9 nM | > 50000 nM | >10204 |
| CC(C)Nc1c(C(=O)NC[C@@H](F)C(C)(C)O)cnc2cc(-c3cncc(C#N)c3)nn12 [Example 124, (R)-2-(5-cyanopyridin-3-yl)-N-(2-fluoro-3-hydroxy-3-methylbutyl)-7-(isopropylamino) pyrazolo[1,5-a]pyrimidine-6-carboxamide] | 360 nM | > 50000 nM | >139 |
| CC(C)Nc1c(C(=O)NC[C@@H](F)C(C)(C)O)cnc2cc(-c3cccnc3F)nn12 [Example 125, (R)—N-(2-fluoro-3-hydroxy-3-methylbutyl)-2-(2-fluoropyridin-3-yl)-7-(isopropylamino)pyrazolo[1,5-a] pyrimidine-6-carboxamide] | 48 nM | > 10000 nM | >208 |
| CC(C)Nc1c(C(=O)NC[C@@H](F)C(C)(C)O)cnc2cc(-c3cnn(C)c3)nn12 [Example 126, (R)—N-(2-fluoro-3-hydroxy-3-methylbutyl)-7-(isopropylamino)-2-(1-methyl-1H-pyrazol-4-yl)pyrazolo[1,5-a]pyrimidine-6-carboxamide] | 240 nM | > 50000 nM | >208 |
| CC(C)Nc1c(C(=O)NC[C@@H](F)C(C)(C)O)cnc2cc(-c3cncnc3)nn12 [Example 127, (R)—N-(2-fluoro-3-hydroxy-3-methylbutyl)-7-(isopropylamino)-2-(pyrimidin-5-yl)pyrazolo[1,5-a]pyrimidine-6-carboxamide] | 170 nM | > 10000 nM | >59 |
| CC(C)Nc1c(C(=O)NC[C@@H](F)C(C)(C)O)cnc2cc(-c3ccccc3)nn12 [Example 128, (R)—N-(2-fluoro-3-hydroxy-3-methylbutyl)-7-(isopropylamino)-2-phenylpyrazolo[1,5-a]pyrimidine-6-carboxamide] | 57 nM | > 10000 nM | >175 |
| CC(C)(O)[C@H](F)CNC(=O)c1cnc2cc(-c3cccnc3)nn2c1NCC(F)F [Example 129, (R)-7-((2,2-difluoroethyl)amino)-N-(2-fluoro-3-hydroxy-3-methylbutyl)-2-(pyridin-3-yl) pyrazolo[1,5-a]pyrimidine-6-carboxamide] | 300 nM | > 10000 nM | >33 |
| CC(C)Nc1c(C(=O)NC[C@@H](F)C(C)(C)O)cnc2cc(-c3cncc(F)c3)nn12 [Example 130, (R)—N-(2-fluoro-3-hydroxy-3-methylbutyl)-2-(5-fluoropyridin-3-yl)-7-(isopropylamino) pyrazolo[1,5-a]pyrimidine-6-carboxamide] | 110 nM | > 10000 nM | >91 |
| Cc1ccc(-c2cc3ncc(C(=O)NC[C@@H](F)C(C)(C)O)c(NC(C)C)n3n2)cn1 [Example 131, (R)—N-(2-fluoro-3-hydroxy-3-methylbutyl)-7-(isopropylamino)-2-(6-methylpyridin-3-yl)pyrazolo[1,5-a]pyrimidine-6-carboxamide] | 20 nM | > 50000 nM | >2500 |
| Cc1ncccc1-c1cc2ncc(C(=O)NC[C@@H](F)C(C)(C)O)c(NC(C)C)n2n1 [Example 132, (R)—N-(2-fluoro-3-hydroxy-3-methylbutyl)-7-(isopropylamino)-2-(2-methylpyridin-3-yl)pyrazolo[1,5-a]pyrimidine-6-carboxamide] | 230 nM | > 50000 nM | >217 |
| CC(C)Nc1c(C(=O)NC[C@@H](F)C(C)(C)O)cnc2cc(-c3cccc(C#N)c3)nn12 [Example 133, (R)-2-(3-cyanophenyl)-N-(2-fluoro-3-hydroxy-3-methylbutyl)-7-(isopropylamino)pyrazolo[1,5-a] pyrimidine-6-carboxamide] | 130 nM | > 2000 nM | >15 |
| CC(C)Nc1c(C(=O)NC[C@@H](F)C(C)(C)O)cnc2cc(-c3ncco3)nn12 [Example 134, (R)—N-(2-fluoro-3-hydroxy-3-methylbutyl)-7-(isopropylamino)-2-(oxazol-2-yl)pyrazolo[1,5-a]pyrimidine-6-carboxamide] | 220 nM | > 50000 nM | >227 |
| CC(C)Nc1c(C(=O)NC[C@@H](F)C(C)(C)O)cnc2cc(-c3ccccc3F)nn12 [Example 135, (R)—N-(2-fluoro-3-hydroxy-3-methylbutyl)-2-(2-fluorophenyl)-7-(isopropylamino)pyrazolo[1,5-a]pyrimidine-6-carboxamide] | 22 nM | > 10000 nM | >455 |
| Cc1ccccc1-c1cc2ncc(C(=O)NC[C@@H](F)C(C)(C)O)c(NC(C)C)n2n1 [Example 136, (R)—N-(2-fluoro-3-hydroxy-3-methylbutyl)-7-(isopropylamino)-2-(o-tolyl)pyrazolo[1,5-a]pyrimidine-6-carboxamide] | 510 nM | > 10000 nM | >20 |
| CC(C)Nc1c(C(=O)NC[C@@H](F)C(C)(C)O)cnc2cc(-c3ccncc3F)nn12 [Example 137, (R)—N-(2-fluoro-3-hydroxy-3-methylbutyl)-2-(3-fluoropyridin-4-yl)-7-(isopropylamino) pyrazolo[1,5-a]pyrimidine-6-carboxamide] | 8.4 nM | > 10000 nM | >1190 |
